Source: patent US11091496B2, “Opioid ketal compounds and uses thereof” (priority 2013, dated 2021)
Like-named read-outs stand apart in the source and are kept apart here. Marks after values point to notes of the source that are not given here.

Experiments:
[1] = format: physicochemical; conditions: for relative rate of hydrolysis: comparison of stereoisomers; for Hydrocodone, 2R,5R ketal in hydrolysis mixture: hydrocodone 2R,5R-hexanediol ketal tested separately; for Hydrocodone, 2R,5R ketal in hydrolysis mixture / Hydrocodone, 2S,5S ketal in hydrolysis mixture / % hydrocodone, % Ketal in hydrolysis mixture: 1 mg/ml; for extent of hydrolysis to hydrocodone in about 4 hours: FIG. 5, FIG. 6; for % Oxycodone, % IVA-IVD in hydrolysis mixture: total 1 mg/ml; for Hydrocodone, 2S,5S ketal in hydrolysis mixture: hydrocodone 2S,5S-hexanediol ketal tested separately; for % hydrocodone, % Ketal in hydrolysis mixture: hydrocodone 1,3-propanediol ketal
[2] = 5% acetic acid 100° C.; for % Oxycodone, % IVA-IVD in hydrolysis mixture: unreacted oxycodone + four isomers of Formula IV, 1 mg/ml
[3] = Ketal hydrolysis at varying pH, buffers at 37° C.; conditions: 1 mg/ml; for hydrolysis of the ketal: 37° C.
[4] = mixture of isomers, 0.1 N HCl 37° C.

hydrocodone 2R,5R-hexanediol ketal [2R,5R ketal]
relative rate of hydrolysis [1]: hydrolyzes relatively quickly
Hydrocodone, 2R,5R ketal in hydrolysis mixture ([1]; 0.1 N HCl 37° C., 0 h): 73.88
Hydrocodone, 2R,5R ketal in hydrolysis mixture ([1]; 0.1 N HCl 37° C., 0.5 h): 34.6
Hydrocodone, 2R,5R ketal in hydrolysis mixture ([1]; 0.1 N HCl 37° C., 1.25 h): 11.37
Hydrocodone, 2R,5R ketal in hydrolysis mixture ([1]; 0.1 N HCl 37° C., 2 h): 2.67
Hydrocodone, 2R,5R ketal in hydrolysis mixture ([1]; 0.1 N HCl 37° C., 3 h): 0
Hydrocodone, 2R,5R ketal in hydrolysis mixture ([1]; 0.1 N HCl 37° C., 4 h): 0

oxycodone cis 1,2-cyclohexanedimethanol ketals
proportion of oxycodone in the mixture ([1]; 0.1 N HCl 37° C., within five hours, FIG. 4): increased from about 30% to about 55%

hydrocodone 2,5-hexanediol ketal
extent of hydrolysis to hydrocodone in about 4 hours ([1]; 0.1 N HCl 37° C.): nearly complete hydrolysis

COc1ccc2c3c1O[C@H]1[C@]4(CCC5(O)[C@@H](C2)N(C)CC[C@]315)O[C@H](C)C[C@H](C)O4 (stereo partly drawn) [IVA, oxycodone 2R,4S-pentanediol ketal]
% Oxycodone, % IVA-IVD in hydrolysis mixture ([1]; 0.1 N HCl 37° C., 0 h): 24.7%
% Oxycodone, % IVA-IVD in hydrolysis mixture ([1]; 0.1 N HCl 37° C., 0.583 h): 25.9%
% Oxycodone, % IVA-IVD in hydrolysis mixture ([1]; 0.1 N HCl 37° C., 1.167 h): 25.6%
% Oxycodone, % IVA-IVD in hydrolysis mixture ([1]; 0.1 N HCl 37° C., 1.75 h): 25%
% Oxycodone, % IVA-IVD in hydrolysis mixture ([1]; 0.1 N HCl 37° C., 2.33 h): 25.9%
% Oxycodone, % IVA-IVD in hydrolysis mixture ([1]; 0.1 N HCl 37° C., 2.92 h): 24.8%
% Oxycodone, % IVA-IVD in hydrolysis mixture ([1]; 0.1 N HCl 37° C., 4 h): 23.7%
% Oxycodone, % IVA-IVD in hydrolysis mixture ([1]; 0.1 N HCl 37° C., 6.5 h): 19.8%
% Oxycodone, % IVA-IVD in hydrolysis mixture ([1]; 0.1 N HCl 37° C., 9.75 h): 15.6%
% Oxycodone, % IVA-IVD in hydrolysis mixture ([1]; 0.1 N HCl 37° C., 13.75 h): 9.9%
% Oxycodone, % IVA-IVD in hydrolysis mixture ([1]; 0.1 N HCl 37° C., 25 h): 4.3%
% Oxycodone, % IVA-IVD in hydrolysis mixture ([2]; 0 h): 24%
% Oxycodone, % IVA-IVD in hydrolysis mixture ([2]; 0.5 h): 21.1%
% Oxycodone, % IVA-IVD in hydrolysis mixture ([2]; 1 h): 15.8%
% Oxycodone, % IVA-IVD in hydrolysis mixture ([2]; 2 h): 6%
% Oxycodone, % IVA-IVD in hydrolysis mixture ([2]; 4.35 h): 3.1%
% Oxycodone, % IVA-IVD in hydrolysis mixture ([2]; 10 h): 0%

Hydrocodone 2S,5S-hexanediol ketal [2S,5S ketal]
relative rate of hydrolysis [1]: hydrolyzes relatively slowly
Hydrocodone, 2S,5S ketal in hydrolysis mixture ([1]; 0.1 N HCl 37° C., 0 h): 81.98
Hydrocodone, 2S,5S ketal in hydrolysis mixture ([1]; 0.1 N HCl 37° C., 0.5 h): 52.18
Hydrocodone, 2S,5S ketal in hydrolysis mixture ([1]; 0.1 N HCl 37° C., 1.25 h): 35.11
Hydrocodone, 2S,5S ketal in hydrolysis mixture ([1]; 0.1 N HCl 37° C., 2 h): 10.19
Hydrocodone, 2S,5S ketal in hydrolysis mixture ([1]; 0.1 N HCl 37° C., 3 h): 4.29
Hydrocodone, 2S,5S ketal in hydrolysis mixture ([1]; 0.1 N HCl 37° C., 4 h): 2

COc1ccc2c3c1O[C@H]1C4(CCC5(O)[C@@H](C2)N(C)CC[C@]315)OCCC(C)O4 (stereo partly shown) [Formula V, oxycodone 1,3-butanediol ketal]
time at which about 50% of the oxycodone is released [1, 4]: about 5 hours
time by which about (almost) 90% oxycodone release occurs [1, 4]: ≤ 25 h
time to almost completely hydrolyze to oxycodone ([2]; FIG. 12, FIG. 13): at least 4 hours
time to about 60% hydrolysis ([2]; FIG. 13): about 1 hour

COc1ccc2c3c1O[C@H]1C4(CCC5[C@@H](C2)N(C)CC[C@@]351)OCCCO4 (stereo partly shown) [Hydrocodone 1,3-propanediol ketal]
extent of hydrolysis to hydrocodone in about 4 hours ([1]; 0.1 N HCl 37° C.): nearly complete hydrolysis
% hydrocodone, % Ketal in hydrolysis mixture ([1]; 0.1 N HCl 37° C., 0 h): 93.1%
% hydrocodone, % Ketal in hydrolysis mixture ([1]; 0.1 N HCl 37° C., 0.57 h): 65.7%
% hydrocodone, % Ketal in hydrolysis mixture ([1]; 0.1 N HCl 37° C., 1.25 h): 52.3%
% hydrocodone, % Ketal in hydrolysis mixture ([1]; 0.1 N HCl 37° C., 2 h): 41.8%
% hydrocodone, % Ketal in hydrolysis mixture ([1]; 0.1 N HCl 37° C., 3 h): 32.8%
% hydrocodone, % Ketal in hydrolysis mixture ([1]; 0.1 N HCl 37° C., 4 h): 25.6%

COc1ccc2c3c1O[C@H]1[C@@]4(CCC5(O)[C@@H](C2)N(C)CC[C@]315)O[C@H](C)C[C@H](C)O4 (stereo partly drawn) [IVB, oxycodone 2S,4R-pentanediol ketal]
% Oxycodone, % IVA-IVD in hydrolysis mixture ([1]; 0.1 N HCl 37° C., 0 h): 10.7%
% Oxycodone, % IVA-IVD in hydrolysis mixture ([1]; 0.1 N HCl 37° C., 0.583 h): 10.6%
% Oxycodone, % IVA-IVD in hydrolysis mixture ([1]; 0.1 N HCl 37° C., 1.167 h): 10.7%
% Oxycodone, % IVA-IVD in hydrolysis mixture ([1]; 0.1 N HCl 37° C., 1.75 h): 7.8%
% Oxycodone, % IVA-IVD in hydrolysis mixture ([1]; 0.1 N HCl 37° C., 2.33 h): 8.3%
% Oxycodone, % IVA-IVD in hydrolysis mixture ([1]; 0.1 N HCl 37° C., 2.92 h): 8.7%
% Oxycodone, % IVA-IVD in hydrolysis mixture ([1]; 0.1 N HCl 37° C., 4 h): 9.2%
% Oxycodone, % IVA-IVD in hydrolysis mixture ([1]; 0.1 N HCl 37° C., 6.5 h): 10%
% Oxycodone, % IVA-IVD in hydrolysis mixture ([1]; 0.1 N HCl 37° C., 9.75 h): 10.2%
% Oxycodone, % IVA-IVD in hydrolysis mixture ([1]; 0.1 N HCl 37° C., 13.75 h): 10.4%
% Oxycodone, % IVA-IVD in hydrolysis mixture ([1]; 0.1 N HCl 37° C., 25 h): 9.3%
% Oxycodone, % IVA-IVD in hydrolysis mixture ([2]; 0 h): 10.9%
% Oxycodone, % IVA-IVD in hydrolysis mixture ([2]; 0.5 h): 8.7%
% Oxycodone, % IVA-IVD in hydrolysis mixture ([2]; 1 h): 9.7%
% Oxycodone, % IVA-IVD in hydrolysis mixture ([2]; 2 h): 9.2%
% Oxycodone, % IVA-IVD in hydrolysis mixture ([2]; 4.35 h): 9%
% Oxycodone, % IVA-IVD in hydrolysis mixture ([2]; 10 h): 4.8%

Hydrocodone 2R,4R-pentanediol ketal
hydrolysis of the ketal ([3]; pH 1, 0 h): 0
hydrolysis of the ketal ([3]; pH 1, 0.33 h): 50
hydrolysis of the ketal ([3]; pH 1, 1 h): 90
hydrolysis of the ketal ([3]; pH 1, 2 h): 99.8
hydrolysis of the ketal ([3]; pH 1, 4 h): 100
hydrolysis of the ketal ([3]; pH 1.5, 0 h): 0
hydrolysis of the ketal ([3]; pH 1.5, 0.33 h): 30.6
hydrolysis of the ketal ([3]; pH 1.5, 1 h): 59.4
hydrolysis of the ketal ([3]; pH 1.5, 2 h): 85.1
hydrolysis of the ketal ([3]; pH 1.5, 4 h): 98.2
hydrolysis of the ketal ([3]; pH 2, 0 h): 0
hydrolysis of the ketal ([3]; pH 2, 0.33 h): 8.3
hydrolysis of the ketal ([3]; pH 2, 1 h): 21.9
hydrolysis of the ketal ([3]; pH 2, 2 h): 37.7
hydrolysis of the ketal ([3]; pH 2, 4 h): 58.2
hydrolysis of the ketal ([3]; pH 2.5, 0 h): 0
hydrolysis of the ketal ([3]; pH 2.5, 0.33 h): 0
hydrolysis of the ketal ([3]; pH 2.5, 1 h): 0
hydrolysis of the ketal ([3]; pH 2.5, 2 h): 15.9
hydrolysis of the ketal ([3]; pH 2.5, 4 h): 26.4
hydrolysis of the ketal ([3]; pH 3, 0 h): 0
hydrolysis of the ketal ([3]; pH 3, 0.33 h): 0
hydrolysis of the ketal ([3]; pH 3, 1 h): 0
hydrolysis of the ketal ([3]; pH 3, 2 h): 5.9
hydrolysis of the ketal ([3]; pH 3, 4 h): 12.7
hydrolysis of the ketal ([3]; pH 4, 4 h, estimated from longer hydrolysis times): 1.3*
hydrolysis of the ketal ([3]; pH 5, 4 h, estimated from longer hydrolysis times): 0.15*
hydrolysis of the ketal ([3]; pH 7, 4 h, estimated from longer hydrolysis times): 0.01*
hydrolysis of the ketal ([3]; pH 12, 4 h, estimated from longer hydrolysis times): 0.01*
pH at which hydrolysis of the ketal is fastest ([3]; pH buffers 37° C.): fastest at pH 1
